The text below walks through data of US11524940B1, “Inhibitors of cysteine proteases and methods of use thereof” (priority 2020, dated 2022).

One assay addresses 229E Mpro (Human coronavirus 229E (HCoV-229E), UniProt P0C6X1). Briefly: 229E Mpro activity. Format: biochemical. The settings on record: read-out: 229E Mpro EC50.
Assay [1] deals with Human Coronavirus (HCov) 229E. Briefly: HCoV 229E cytopathic effect (CPE) assay. Format: cell-based. The settings on record: protection from virus-induced CPE, CellTiter Glo. (Cytopathic effects are the visible damage that an infection or toxin causes in cultured cells.)
Method: The antiviral activity of compounds is calculated based on the protection of the virus-induced CPE at each concentration normalized by the virus control.
Reagents and instruments used in this assay include luminescent cell viability assay kit CellTiter Glo (Promega) and Microplate Reader Synergy2 (BioTek).
Cytopathic effect (CPE) is measured by CellTiter Glo following the manufacturer's manual. The antiviral activity of compounds is calculated based on the protection of the virus-induced CPE at each concentration normalized by the virus control.
A further assay has as its target SARS-CoV2 Mpro (Severe acute respiratory syndrome coronavirus 2 (2019-nCoV) (SARS-CoV-2), UniProt P0DTD1). Briefly: COVID-19 (SARS-CoV2) Mpro enzymatic assay. Format: biochemical. The settings on record: 25 nM Mpro, 25 μM substrate.

Sequence of 229E Mpro (P0C6X1 2966-3267 limits assumed): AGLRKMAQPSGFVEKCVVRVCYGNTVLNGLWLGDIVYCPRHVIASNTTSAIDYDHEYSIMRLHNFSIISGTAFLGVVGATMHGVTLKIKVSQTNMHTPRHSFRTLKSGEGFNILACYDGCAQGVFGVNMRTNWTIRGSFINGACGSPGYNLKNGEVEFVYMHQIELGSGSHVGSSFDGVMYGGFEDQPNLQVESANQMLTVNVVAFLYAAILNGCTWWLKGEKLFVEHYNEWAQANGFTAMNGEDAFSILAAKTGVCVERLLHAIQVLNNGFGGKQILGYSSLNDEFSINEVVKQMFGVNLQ
Method for 229E Mpro: Compounds are assayed using standard methods to assess compound activity and IC50. […] The assay buffer contains 20 mM of Tris-HCl (pH 7.3), 100 mM of NaCl, 1 mM of EDTA, 5mM of TCEP and 0.1% BSA.

For the compound `COc1cccc2[nH]c(C(=O)N[C@@H](CC(C)C)C(=O)NC(C#N)c3cccnc3)cc12` (mixture of isomers) [Compound 433, N-[(1S)-1-[[cyano(3-pyridyl)methyl]carbamoyl]-3-methyl-butyl]-4-methoxy-1H-indole-2-carboxamide], the values for the EC50 (at 229E Mpro; in assay [1] (human coronavirus 229E)) were under 2 µM and 2 to 10 µM, respectively.
Take `COc1cccc2[nH]c(C(=O)N[C@@H](CC(C)C)C(=O)N[C@@H](CC3CCNC3=O)C(C#N)NCc3ccccc3)cc12` (single isomer, unassigned) [507 (Isomer 1.1)]: the EC50 (on 229E Mpro; in assay [1] (human coronavirus 229E)) was under 2 µM in each case.
For the compound `COc1cccc2[nH]c(C(=O)N[C@@H](CC(C)C)C(=O)N[C@@H](CC3CCNC3=O)C(C#N)NCc3ccccc3)cc12` (single isomer, unassigned) [507 (Isomer 1.2)], the EC50 (at 229E Mpro; in assay [1]) was under 2 µM throughout.
Regarding `COc1cccc2[nH]c(C(=O)N[C@@H](CC(C)C)C(=O)N[C@@H](CC3CCNC3=O)C(C#N)NCc3ccccc3)cc12` (single isomer, unassigned) [507 (Isomer 2.2)], the EC50 (at 229E Mpro; in assay [1]) was under 2 µM throughout.
Regarding `COc1cccc2[nH]c(C(=O)N3CC4(CC3C(=O)N[C@H](C#N)C[C@@H]3CCCNC3=O)CC(F)(F)C4)cc12` (single isomer, unassigned) [723 (Isomer 2)], the IC50 on SARS-CoV2 Mpro is under 2 µM. The EC50 (on 229E Mpro; in assay [1] (human coronavirus 229E)) was under 2 µM each time.
`N#C[C@H](C[C@@H]1CCCNC1=O)NC(=O)C1CC2(CCCCC2)CN1C(=O)c1cc2cccc(Cl)c2[nH]1` (single isomer, unassigned) [731 (Isomer 1)] came in with a concentration for half-maximal inhibition (IC50) on SARS-CoV2 Mpro of under 2 µM. Besides, the EC50 (at 229E Mpro; in assay [1] (human coronavirus 229E)) was under 2 µM throughout.
On to `N#C[C@H](C[C@@H]1CCCNC1=O)NC(=O)C1CC2(CCCCC2)CN1C(=O)c1cc2ccc(Cl)cc2[nH]1` (single isomer, unassigned) [733 (Isomer 1)], for which the IC50 against SARS-CoV2 Mpro was under 2 µM. Further, the EC50 (on 229E Mpro; in assay [1] (human coronavirus 229E)) was under 2 µM throughout.
Regarding `COc1cccc2[nH]c(C(=O)N[C@@H](CC(C)C)C(=O)N[C@H](C#N)C[C@@H]3CCNC3=O)cc12` [Compound 101, N-[(1S)-1-[[(1S)-1-cyano-2-[(3S)-2-oxopyrrolidin-3-yl]ethyl]carbamoyl]-3-methyl-butyl]-4-methoxy-1H-indole-2-carboxamide], the EC50 (at 229E Mpro; in assay [1] (human coronavirus 229E)) was under 2 µM throughout.
For `COc1cccc2[nH]c(C(=O)N3C[C@H]4C([C@H]3C(=O)N[C@H](C#N)C[C@@H]3CCNC3=O)C4(C)C)cc12` (stereo partly drawn) [Compound 197, (2S,5S)-N-[(1S)-1-cyano-2-[(3S)-2-oxopyrrolidin-3-yl]ethyl]-3-(4-methoxy-1H-indole-2-carbonyl)-6,6-dimethyl-3-azabicyclo[3.1.0]hexane-2-carboxamide], the EC50 (at 229E Mpro; in assay [1] (human coronavirus 229E)) was under 2 µM throughout.
As to `COc1cccc2[nH]c(C(=O)N[C@@H](CC(C)C)C(=O)N[C@@H](C[C@@H]3CCNC3=O)C(N)C#N)cc12` (stereo partly drawn) [Compound 344C, N-[(1S)-1-[[(1S)-2-amino-2-cyano-1-[[(3S)-2-oxopyrrolidin-3-yl]methyl]ethyl]carbamoyl]-3-methyl-butyl]-4-methoxy-1H-indole-2-carboxamide], the half-maximal effective concentration (EC50) (at 229E Mpro; in assay [1] (human coronavirus 229E)) was under 2 µM in each case.
Take `CCCOc1cccc2[nH]c(C(=O)N[C@@H](CC3CC3)C(=O)N[C@H](C#N)C[C@@H]3CCNC3=O)cc12` [Compound 379, N-[(1S)-2-[[(1S)-1-cyano-2-[(3S)-2-oxopyrrolidin-3-yl]ethyl]amino]-1-(cyclopropylmethyl)-2-oxo-ethyl]-4-propoxy-1H-indole-2-carboxamide]: the EC50 (at 229E Mpro; in assay [1] (human coronavirus 229E)) was under 2 µM each time.
Regarding `CC(C)C[C@H](NC(=O)c1cc2c(OC(F)F)cccc2[nH]1)C(=O)N[C@H](C#N)C[C@@H]1CCNC1=O` [Compound 509, N-[(1S)-1-[[(1S)-1-cyano-2-[(3S)-2-oxopyrrolidin-3-yl]ethyl]carbamoyl]-3-methyl-butyl]-4-(difluoromethoxy)-1H-indole-2-carboxamide], the EC50 (on 229E Mpro; in assay [1] (human coronavirus 229E)) was under 2 µM each time.
In the case of `N#C[C@H](C[C@@H]1CCNC1=O)NC(=O)[C@H](CC1CC1)NC(=O)c1cc2cc(Cl)ccc2[nH]1` [Compound 519, 5-chloro-N-[(1S)-2-[[(1S)-1-cyano-2-[(3S)-2-oxopyrrolidin-3-yl]ethyl]amino]-1-(cyclopropylmethyl)-2-oxo-ethyl]-1H-indole-2-carboxamide], the EC50 (on 229E Mpro; in assay [1] (human coronavirus 229E)) was under 2 µM throughout.
As for `N#C[C@H](C[C@@H]1CCNC1=O)NC(=O)[C@H](CC1CC1)NC(=O)c1cc2cccc(Cl)c2[nH]1` [Compound 531, 7-chloro-N-[(1S)-2-[[(1S)-1-cyano-2-[(3S)-2-oxopyrrolidin-3-yl]ethyl]amino]-1-(cyclopropylmethyl)-2-oxo-ethyl]-1H-indole-2-carboxamide], the EC50 (at 229E Mpro; in assay [1] (human coronavirus 229E)) was under 2 µM throughout.
Take `COc1cccc2[nH]c(C(=O)N[C@@H](CC3CCC3)C(=O)N[C@H](C#N)C[C@@H]3CCNC3=O)cc12` [Compound 577, N-[(1S)-2-[[(1S)-1-cyano-2-[(3S)-2-oxopyrrolidin-3-yl]ethyl]amino]-1-(cyclobutylmethyl)-2-oxo-ethyl]-4-methoxy-1H-indole-2-carboxamide]: the EC50 (at 229E Mpro; in assay [1] (human coronavirus 229E)) was under 2 µM each time.
As for `COc1cccc2[nH]c(C(=O)N[C@@H](CC(C)(C)C)C(=O)N[C@H](C#N)C[C@@H]3CCCNC3=O)cc12` [Compound 643, N-[(1S)-1-[[(1S)-1-cyano-2-[(3S)-2-oxo-3-piperidyl]ethyl]carbamoyl]-3,3-dimethyl-butyl]-4-methoxy-1H-indole-2-carboxamide], the concentration for a half-maximal effect (EC50) (on 229E Mpro; in assay [1] (human coronavirus 229E)) was under 2 µM throughout.
At SARS-CoV2 Mpro, `COCCOCCOC(=O)N[C@@H](CC1CC1)C(=O)N[C@H](C#N)C[C@@H]1CCNC1=O` [Compound 671, 2-(2-methoxyethoxy)ethyl N-[(1S)-2-[[(1S)-1-cyano-2-[(3S)-2-oxopyrrolidin-3-yl]ethyl]amino]-1-(cyclopropylmethyl)-2-oxo-ethyl]carbamate] had an IC50 of 2 to 10 µM. The EC50 at 229E Mpro was 10 to 30 µM.
`N#C[C@H](C[C@@H]1CCCNC1=O)NC(=O)[C@H](CC1CC1)NC(=O)c1ccn[nH]1` [Compound 872, N-((S)-1-(((S)-1-cyano-2-((S)-2-oxopiperidin-3-yl)ethyl)amino)-3-cyclopropyl-1-oxopropan-2-yl)-1H-pyrazole-5-carboxamide] yielded an IC50 on SARS-CoV2 Mpro of 2 to 10 µM. For the same compound, at 229E Mpro, the EC50 fell in the range of 2 to 10 µM.
For the compound `COC(=O)NS(=O)(=O)n1nccc1C(=O)N[C@@H](CC1CC1)C(=O)N[C@H](C#N)C[C@@H]1CCCNC1=O` [Compound 1258], the IC50 against SARS-CoV2 Mpro lay within 2 to 10 µM. Further, the 50% effective concentration (EC50) at 229E Mpro was in the range of 2 to 10 µM.
Compound “(S)-N-((S)-1-cyano-2-((S)-2-oxopyrrolidin-3-yl)ethyl)-1-(4-methoxy-1H-indole-2-carbonyl)-4,4-dimethylpyrrolidine-2- carboxamide [Compound 395]” had an IC50 on SARS-CoV2 Mpro of 2 to 10 µM. The EC50 on 229E Mpro is 10 to 30 µM; in assay [1], 2 to 10 µM.

As a reminder, the EC50 is the concentration needed to bring the measured effect to its halfway point. Broadly, the IC50 is the point on the concentration scale where inhibition reaches its midpoint. Lower therefore signals inhibition by little substance.
